{"source": "patent US20060074073A1", "about": "“Therapeutic combinations comprising poly (ADP-ribose) polymerases inhibitor” (AGOURON PHARMACEUTICALS, INC., priority 2004, published 2006)", "key": {"PARP [1]": {"tested_on": "PARP", "experiment": "Inhibition of cellular NAD consumption in P388 mouse leukemia cells after PARP activation", "type": "cell-based", "conditions": "PARP activated by MNNG, hydrogen peroxide or gamma irradiation, data not shown", "excerpt": "After DNA damage, cellular NAD is rapidly incorporated into poly-ADP-ribose polymer."}, "[2]": {"experiment": "IV pharmacokinetics, summary over all species", "parameters": "species or system CD-1 mice, Wistar rats, Beagle dogs, and cynomolgus monkeys", "conditions": "CD-1 (mouse), Wistar (rat), Beagle (dog), cynomolgus monkey, in vivo, IV dosing", "excerpt": "Each of the dose treatment groups was split into 2 cohort groups of 4 mice. The reason for cohort blood sampling is due to the blood volume limitations of the mouse species. Blood was drawn from each cohort every other pharmacokinetic sampling time. […] Three mice per dose group were euthanized at each of the collection time points. […] Blood from each rat was collected for each time point."}, "PARP [3]": {"tested_on": "PARP", "experiment": "Tumor PARP catalytic activity, 32P-NAD incorporation in SW620 tumor homogenates of treated animals", "type": "in vivo, mice", "method": "Tumours were excised and were snap frozen in liquid nitrogen and stored at −80° C. until homogenised for analysis. The specimen was defrosted on ice and the wet weight documented. The tissue was homogenised using a Pro 2000 instrument (Pro Scientific Inc, Monroe, Conn., USA) in 3 volumes (i.e. 1 mg plus 3 μl isotonic buffer −7 mM Hepes, 26 mM KCl, 0.1 mM dextran, 0.4 mM EGTA, 0.5 mM MgCl2, 45 mM sucrose, pH 7.8), giving a homogenate with an overall dilution of 1 in 4. The homogenate was kept on ice throughout the process, and homogenisation was performed in 10 second bursts to prevent undue warming of the sample. Prior to assay the samples were further diluted with isotonic buffer where necessary to give a final dilution of 1 in 40 for [^32P]NAD incorporation assay or 1 in 1000 for immunoblot aaasy.\nBriefly, cells were suspended in hypotonic buffer (9 mM HEPES pH 7.8, 4.5% (v/v) dextran, 4.5 mM MgCl2 and 5 mM DTT) at 1.5×10^7/ml on ice for 30 minutes then 9 vol of isotonic buffer (40 mM HEPES pH 7.8, 130 mM KCl, 4% (v/v) dextran, 2 mM EGTA, 2.3 mM MgCl2, 225 mM sucrose and 2.5 mM DTT) was added. The reaction was started by adding 300 μl cells to 100 μl 300 μM NAD^+ containing [^32P]-NAD^+ (Amersham, UK), and terminated by the addition of 2 ml ice cold 10% (w/v) TCA+10% (w/v) sodium pyrophosphate. After 30 min on ice the precipitated ^32P—labelled ADP-ribose polymers were filtered on Whatman GC/C filters (Whatman Intemational Ltd, Kent, UK), washed 5 times with 1% (v/v) TCA/1% (v/v) sodium pyrophosphate, dried and counted. PARP inhibitory IC50 values were calculated from computer-fitted curves (GraphPad Software, Inc., San Diego, Calif.).\nTumour homogenates were assayed in a similar manner; however, the homogenisation process introduces sufficient DNA damage to maximally stimulate PARP activity and oligonucleotide was not therefore required. Results were expressed in terms of pmol PAR former per mg tumour.\nPreparation of Tumour/Tissue Samples • 1. The frozen tumour samples are weighed. • 2. 3 volumes (i.e. 3 μl solution added for each 1 mg tissue) of isotonic buffer plus DTT is added to the tumour sample. This is stored on ice until and during homogenisation. • 3. The sample is homogenised on ice within a Class II cabinet for 10-second bursts until no detectable macroscopic pieces of tissue are visible. • 4. Sufficient volume of the homogenate is diluted 1 in 10 with isotonic buffer plus DTT to provide an overall dilution of 1 in 40 from the original sample. A final volume of 3 ml is sufficient for triplicate sampling and a subsequent protein assay. • 5. The diluted homogenate is stored on ice and assayed within one hour as below.\nPARP Assay of Tumour/Tissue Samples • 1. ^32P 600 μM NAD solution is prepared fresh on the day of experiment as detailed above. Oligonucleotide stock is removed from storage and defrosted. • 2. Water bath is warmed to 26° C. and set to agitate at 70 oscillations per minute.\n3. Reaction test tubes are set up as per table A for the QC samples and as per table B for the homogenate.\n• 4. Each QC sample is assayed in triplicate, with T0, +oligo and −oligo samples ×3. (Total of 9 tubes per sample, if low cell counts −oligo samples are omitted.) Homogenates are also assayed in triplicate, with T0 and reaction samples ×3. (Total 6 tubes per sample). • 5. 2 ml ice cold 10% TCA+10% NaPPi is added to the T0 tubes prior to addition of homogenate or cells, to correct for non-specific binding of radio-label to the filter. • 6. Reaction test tubes homogenates and QC cells are warmed in the water bath to 26° C. for 7 minutes. • 7. Each preparation is vortexed briefly and the reaction is started by adding 300 μl of this to each reaction tube. • 8. The reaction is stopped exactly 6 minutes after addition of homogenate by adding 2 ml of ice cold 10% TCA+10% NaPPi and vortexing. • 9. The tube is then incubated on ice for at least one hour prior to filtration. • 10. […]"}, "[4]": {"experiment": "Plasma and tumor levels by HPLC/MS in mice bearing SW620 xenograft", "type": "in vivo", "conditions": "for concentration at 0.5 h / concentration at 6 h / concentration at 24 h: mouse, intraperitoneal", "method": "In a parallel study plasma and tumor levels of the compound of formula 1 were measured by an HPLC/MS assay. In addition the degree of inhibition of tumor PARP catalytic activity was assessed using P^32-NAD incorporation into poly-ADP-ribose polymer in homogenates from SW620 tumors of treated animals. […] PARP catalytic activity was inhibited by 50% at 6 h and by 25% at 24 h."}, "LoVo xenografts": {"tested_on": "LoVo xenografts", "experiment": "In vivo antitumor efficacy with irinotecan, LoVo xenograft", "parameters": "species or system mice", "conditions": "irinotecan 25 mg/kg i.p. + 0.5 mg/kg i.p. (glucuronate salt), once weekly × 3", "excerpt": "In no combination study was antagonism observed."}, "SW620 cells": {"tested_on": "SW620 cells", "experiment": "Inhibition of cell growth and potentiation of topotecan, SW620", "type": "cell-based, human"}, "[5]": {"tested_on": "SW620 human colon carcinoma xenograft", "experiment": "In vivo antitumor efficacy with temozolomide, SW620 xenograft", "conditions": "SW620"}}, "note": "Read-outs that look alike come from different tables or passages of the source. Marks after values point to notes of the source that are not given here.", "data": [{"molecule": "CNCc1ccc(-c2[nH]c3cc(F)cc4c3c2CCNC4=O)cc1", "note": "[compound of formula 1, 8-fluoro-2-{4-[(methylamino)methyl]phenyl}-1,3,4,5-tetrahydro-6H-azepino[5,4,3-cd]indol-6-one]", "values": [{"measurement": "inhibition of PARP catalytic activity (cellular NAD consumption)", "setting": "PARP [1]", "result": "inhibits PARP catalytic activity"}, {"measurement": "clearance", "setting": "[2]", "result": "2.04 to 8.16", "unit": "L/h/kg"}, {"measurement": "half-life", "setting": "[2]; read-out: terminal half-life", "result": "2 to 5", "unit": "h"}, {"measurement": "Vd", "setting": "[2]; read-out: volume of distribution", "result": "7 to 15", "unit": "L/kg"}, {"measurement": "PARP catalytic activity inhibited", "setting": "PARP [3]; 1.0 mg/kg, 6 h", "result": 50, "unit": "%"}, {"measurement": "PARP catalytic activity inhibited", "setting": "PARP [3]; 1.0 mg/kg, 24 h", "result": 25, "unit": "%"}, {"measurement": "PARP catalytic activity inhibited", "setting": "PARP [3]; 10 mg/kg, 6 h", "result": 90, "unit": "%"}, {"measurement": "PARP catalytic activity inhibited", "setting": "PARP [3]; 10 mg/kg, 24 h", "result": 75, "unit": "%"}, {"measurement": "Tumor compound of formula 1", "setting": "[4]; 1.0 mg/kg i.p. as phosphate salt, 24 h", "result": "BLQ^c"}, {"measurement": "plasma concentrations", "setting": "[4]; 1.0 mg/kg, 6 hours", "result": "barely detectable"}, {"measurement": "Plasma compound of formula 1", "setting": "[4]; 10 mg/kg i.p. as phosphate salt, 0.5 h", "result": "1867 + 102 ng/mL"}, {"measurement": "plasma concentrations", "setting": "[4]; 10 mg/kg, 24 h", "result": "barely detectable"}, {"measurement": "tumor levels", "setting": "[4]; 10 mg/kg, all times up to 24 h", "result": "> 200", "unit": "ng/mL"}, {"measurement": "concentration at 0.5 h", "setting": "[4]; plasma, 1 mg/kg, Plasma compound of formula 1, 1.0 mg/kg i.p. as phosphate salt, 0.5 h", "result": "0.107 ± 0.0323", "unit": "µg/mL"}, {"measurement": "concentration at 6 h", "setting": "[4]; plasma, 1 mg/kg, Plasma compound of formula 1, 1.0 mg/kg i.p. as phosphate salt", "result": "0.00664 ± 0.00155", "unit": "µg/mL"}, {"measurement": "concentration at 24 h", "setting": "[4]; plasma, 1 mg/kg, Plasma compound of formula 1, 1.0 mg/kg i.p. as phosphate salt, 24 h", "result": "0.00185 ± 0.00014", "unit": "µg/mL"}, {"measurement": "concentration at 6 h", "setting": "[4]; plasma, 10 mg/kg, Plasma compound of formula 1, 10 mg/kg i.p. as phosphate salt", "result": "0.0644 ± 0.011", "unit": "µg/mL"}, {"measurement": "concentration at 24 h", "setting": "[4]; plasma, 10 mg/kg, Plasma compound of formula 1, 10 mg/kg i.p. as phosphate salt, 24 h", "result": "0.00234 ± 0.00033", "unit": "µg/mL"}, {"measurement": "concentration at 6 h", "setting": "[4]; plasma, 10 mg/kg, read-out: plasma concentrations", "result": 0.03, "unit": "µg/mL"}, {"measurement": "concentration at 0.5 h", "setting": "[4]; tumor, 1 mg/kg, Tumor compound of formula 1, 1.0 mg/kg i.p. as phosphate salt, 0.5 h", "result": "98.3 ± 25.2", "unit": "ng/g"}, {"measurement": "concentration at 6 h", "setting": "[4]; tumor, 1 mg/kg, Tumor compound of formula 1, 1.0 mg/kg i.p. as phosphate salt", "result": "49.5 ± 2.12", "unit": "ng/g"}, {"measurement": "concentration at 0.5 h", "setting": "[4]; tumor, 10 mg/kg, Tumor compound of formula 1, 10 mg/kg i.p. as phosphate salt, 0.5 h", "result": "767 ± 55.6", "unit": "ng/g"}, {"measurement": "concentration at 6 h", "setting": "[4]; tumor, 10 mg/kg, Tumor compound of formula 1, 10 mg/kg i.p. as phosphate salt", "result": "523 ± 37.3", "unit": "ng/g"}, {"measurement": "concentration at 24 h", "setting": "[4]; tumor, 10 mg/kg, Tumor compound of formula 1, 10 mg/kg i.p. as phosphate salt, 24 h", "result": "167 ± 54.2", "unit": "ng/g"}, {"measurement": "Enhancement (%)", "setting": "LoVo xenografts", "result": 86, "unit": "%"}, {"measurement": "Topotecan PF50", "setting": "SW620 cells; +0.4 μM compound of formula 1", "result": 2.6}, {"measurement": "GI50", "setting": "SW620 cells; Homo sapiens, SW-620, 120 h, 5-day continuous exposure", "result": 11, "unit": "µM"}, {"measurement": "Enhancement (%)", "setting": "[5]; 0.1 mg/kg i.p. glucuronate salt + temozolomide 68 mg/kg p.o., QD×5", "result": 28, "unit": "%"}, {"measurement": "Enhancement (%)", "setting": "[5]; 1.0 mg/kg i.p. glucuronate salt + temozolomide 68 mg/kg p.o., QD×5", "result": 100, "unit": "%"}, {"measurement": "Enhancement (%)", "setting": "[5]; temozolomide 200 mg/kg oral + compound 0.1 mg/kg i.p., single dose", "result": "50^e %"}, {"measurement": "Enhancement (%)", "setting": "[5]; temozolomide 200 mg/kg oral + compound 0.3 mg/kg i.p., single dose", "result": "80^e %"}, {"measurement": "Enhancement (%)", "setting": "[5]; temozolomide 200 mg/kg oral + compound 1 mg/kg i.p., single dose", "result": "107^e %"}, {"measurement": "Enhancement (%)", "setting": "[5]; temozolomide 200 mg/kg oral + compound 5 mg/kg i.p., single dose", "result": "111^e,f %"}]}]}
